What was measured:
[1] = Population pharmacokinetic analyses (Example 1 and Example 2 combined); assay type: in vivo, human; details: population PK
Procedure: (§1) Sixteen subjects completed the full 12 weeks of treatment and all were included in safety analyses. […] In the PK analysis, due to the sparse sampling collection design, the time period from 0 to 24 hours post-dose was divided into 4 blocks in order to show the distribution of concentrations over time. […] Average blood concentration of about 8 ng/mL at the 40 mg dose level was observed. This is higher than the 5 ng/mL.

[2] = test system: patients with mild cognitive impairment (MCI) due to Alzheimer's disease (AD) or with mild AD; experiment: MMSE, 6-week study (Example 2); assay type: in vivo, human; details: baseline vs day 40; no statistical analyses
Description: (§2) The MMSE is a questionnaire used extensively in clinical and research settings to measure mental function. It is commonly used to screen for dementia, and to assess the severity and progression of dementia. The MMSE is an effective way to document a human subject's response to treatment. The test examines functions including registration, attention and calculation, recall, language, ability to follow simple commands and orientation.
Subjects were men and women between 60-85 years old, having a confirmed diagnosis of MCI due to AD or mild AD (consistent with National Institute of Aging and Alzheimer's Association research diagnostic guidelines) and a Mini-Mental State Examination (MMSE) score greater than 20. Inclusion criteria included gradual and progressive decline in memory function reported by patients or informants over more than 6 months; an amnestic presentation on formal neuropsychological testing that was characterized by a pattern of rapid forgetting, as determined by the PI/subinvestigator; evidence of functional decline as evidenced by a CDR sum of box score of ≥0.5; and MMSE score of 17 to 30, inclusive. […] A total of 9 subjects were enrolled and all were included in safety analysis; 8 subjects completed 6 weeks treatment and were included in pharmacodynamics analysis. […]

[3] = test system: DS (Down's Syndrome) human fibroblasts; experiment: EEA1-labeled early endosomes in Down's Syndrome human fibroblasts (Example 4); assay type: cell-based; details: 0, 1, 10, or 50 nM VX-745 for 24 hours
Description: Down's Syndrome (DS, Trisomy 21) derived human fibroblasts provide a robust system for studying Alzheimer's related endosomal dysfunction as one of the Familial Alzheimer's disease (FAD) genes, Amyloid Precursor Protein (APP), is expressed on chromosome 21 and as a result inherently DS individuals overexpress APP and develop an Alzheimer's type dementia as they grow older beyond age 40 (Jiang, Y, et. al., “Alzheimer's-related endosome dysfunction in Down syndrome is Aβ-independent but requires APP and is reversed by BACE-1 inhibition,” PNAS 107:1630-1635 (2010)).
In vitro, DS human fibroblasts show increased numbers and enlarged early endosomes by electron microscopy or by fluorescence staining with antibodies to EEA1 (Early Endosome Antigen 1). […] After incubation, the cells were fixed and incubated with anti-EEA1 antibody to label early endosomes.

[4] = Plasma pharmacokinetics, 12-week Phase IIa study (Example 1); assay type: in vivo, human; details: 40 mg dose level, twice daily, 12-week study
Procedure: (§3) Investigators and patients were blind to the dosage strength. […] Patients were instructed to take doses within 30 minutes following a meal or snack, with each dose taken approximately 12 hours apart at the same times each day throughout the study.
Dosing started on Day 1 following completion of all baseline procedures. During the treatment period, subjects returned to the clinic on Days 14, 28, 56, and 84. […] Dynamic PET scanning with fill quantitative analysis was performed at baseline and at the end of treatment.
as §1

[5] = Safety and tolerability, 12-week Phase IIa study (Example 1); assay type: in vivo, human; details: 40 mg or 125 mg twice daily, 12 weeks
Procedure: as §3, §1

[6] = test system: brain metabolism; experiment: Brain FDG PET scan, 6-week study; assay type: in vivo, human; details: baseline to day 40
Procedure: Quantitative EEG was conducted as a measure of the effects of inflammatory cytokines on synaptic function and the effects of modulation of p38 MAPK on synaptic plasticity. Brain fluorodeoxyglucose (FDG) PET scan was conducted at the Screening Visit and Day 40 to measure brain metabolism. In addition, CSF drug levels of VX-745 were obtained to confirm delivery of drug to the brain.

[7] = test system: interleukin-10 (IL-10); experiment: CSF cytokine measurement (Mesoscale Discovery), IL-10, 6-week study; assay type: in vivo, human; details: day 41; after VX-745 reached Cmax in the plasma
Procedure: Cytokine measurements of CSF samples were done to assess the balance of pro-inflammatory versus anti-inflammatory cytokines. The t-helper type 1/t-helper type 2 (TH1/TH2) multiplex cytokine (IFN-γ, IL-1β, IL-2, IL-4, IL-5, IL-8, IL-10, IL-12p70, IL-13, TNFα ) panel by Mescoscale Discovery were utilized to inform on effects on the relative balance of pro-inflammatory cytokines (e.g. IL-1β, TNFα) versus anti-inflammatory cytokines (e.g., IL-10).
Target engagement was assessed through the evaluation of the effect of drug treatment on CSF biomarkers. CSF was collected at 6 time-points over 24 hours at baseline (the 24 hours prior to first dose) and again at 6 time-points over 24 hours near the end of treatment on Day 40. The samples were evaluated by the Mesoscale Discovery ELISA platform for multiple cytokines ((IFN-γ, IL-1β, IL-2, IL-4, IL-5, IL-8, IL-12 protein 70, IL-13, TNFα, and CSF) and for amyloid-beta peptides (Aβ 38/40/42).

[8] = Safety and tolerability, 6-week Phase IIa study (Example 2); assay type: in vivo, human; details: 6 weeks
Procedure: Investigators and patients were blinded to the dosage strength. The first 3 patients were randomly assigned to receive either 40 or 125 mg twice daily, with dosing level blinded. The remaining patients (up to 7 patients) received 40 mg twice daily on an open-label basis. […] Patients were instructed to eat a meal approximately 30 minutes before dosing with VX 745 with each dose taken approximately 12 hours (+/−3 hours) apart at the same times each day throughout the study.

[9] = test system: brain-derived neurotrophic factor (BDNF); experiment: Plasma BDNF levels by Somascan, 12-week study; assay type: in vivo, human; details: baseline vs after 84 days; n=10 subjects
Procedure: FIG. 15 depicts plasma brain-derived neurotrophic, factor (BDNF) levels at baseline and after 84 days (n=10 subjects). BDNF levels were measured by Somascan®.

[10] = test system: patients with mild cognitive impairment (MCI) due to Alzheimer's disease (AD) or with mild AD; experiment: Mini-Mental State Examination (MMSE), 12-week study (Example 1); assay type: in vivo, human; details: for subjects with an increase from screening of at least 1 in MMSE score: Day 84 (Visit 7)
Description: as §2, §3

O=c1ncn2nc(Sc3ccc(F)cc3F)ccc2c1-c1c(Cl)cccc1Cl [VX-745]
median 12-hour exposure ([1]; 40 mg dose level): 78 ng·h/mL | median 12-hour exposure ([1]; 125 mg dose level): 116 ng·h/mL | half-life ([1]; human, plasma, oral, Examples 1 and 2 combined, read-out: terminal half-life (converted)): ~960 min | MMSE individual subject scores [2]: overall trends are encouraging | average number of EEA1-labeled endosomes per DS cell [3]: significantly reduced | average size of EEA1-labeled endosomes in DS cells [3]: significantly reduced | Average blood concentration [4]: about 8 ng/mL | liver transaminase elevations [5]: No liver transaminase elevations | serious adverse events [5]: No serious adverse events | tolerability [5]: well tolerated | FDG-PET [6]: no change | CSF IL-10 change from baseline [7]: decreased rapidly | tolerability ([8]; 40 mg or 125 mg twice daily): well-tolerated | safety concerns [8]: No safety concerns were identified | safety laboratory and 12-lead ECG parameters [8]: no treatment-related or clinically relevant trends | Most common adverse events ([8]; 9 subjects): mild dizziness, headache, and somnolence reported in 2 subjects each | plasma BDNF levels [9]: increases plasma BDNF levels | subjects with an increase from screening of at least 1 in MMSE score ([10]; 40 mg group): approximately 50% | patients with greater than a 3-point improvement in MMSE score over baseline ([10]; 40 mg group, FIG. 2): two of four | subjects with an increase from screening of at least 1 in MMSE score ([10]; 125 mg group): ~33%
